# Data reported in patent publication US10179138B2, “Pharmaceutical composition comprising 7β-hydroxycholesterol intravenous administration” (Immunopharm AG, priority 2016, dated 2019).
# Where two headings read alike, the source gives them in different places.
# Columns and labels:
# [1] = cited from earlier work; for behaviour in aqueous solution over time: after several hours
# [2] = system: human cell lines of colon carcinoma; conditions: cited from earlier work
# [3] = format: physicochemical; conditions: for decomposition of 7β-hydroxycholesterol after sterilization: sterilization at 120° C.
# Description: The solution has been stored in glass vials.
# A readily prepared infusion solution (on the basis of physiological saline solution) has been stored at room temperature (<25° C.) for 3 months.
# [4] = cited from earlier work
# [5] = format: physicochemical
# From the text: However, if you want to dilute the solution of 7β-hydroxycholesterol/solvent in an aqueous liquid, e.g. for the provision of an infusion solution, the substance flocculates. Thus, the inventors use a solubilizing agent in order to maintain 7β-hydroxycholesterol in the later infusion solution in solution.
# [6] = readily prepared infusion solution (physiological saline), room temperature (<25° C.), 3 months
compound,measurement,setting,value
hydroxycholesteryl-bishemisuccinate-diethanolamine,behaviour in aqueous solution over time,[1],starts to decompose and to flocculate
same,stability in aqueous solution,[1],instable
same,induction of apoptosis,[2],induction of apoptosis
CC(C)CCC[C@@H](C)[C@H]1CC[C@H]2[C@@H]3[C@@H](O)C=C4C[C@@H](O)CC[C@]4(C)[C@H]3CC[C@]12C [7β-hydroxycholesterol],decomposition of 7β-hydroxycholesterol on storage,[3]; concentrate stored at 40° C. for 3 months in glass vials,did not show a decomposition
same,decomposition of 7β-hydroxycholesterol after sterilization,[3]; concentrate,remained stable
same,decomposition of 7β-hydroxycholesterol after sterilization,[3]; readily prepared infusion solution (physiological saline solution),remained stable
same,appearance / flocculation of solution on storage,[3]; [6],"remained clear, there was no flocculation"
same,decrease of content of 7β-hydroxycholesterol by HPLC after storage,[3]; [6],could not be determined
same,solubility in water,[4],insoluble in water
same,behaviour on dilution of solvent solution in aqueous liquid,[5],flocculates
same,solubility in water soluble organic solvent,[5],excellent solubility
same,stability of solution in water soluble organic solvent,[5],remain stable for years
CC(C)CCC[C@@H](C)[C@H]1CC[C@H]2[C@@H]3[C@@H](OC(=O)CCC(=O)[O-])C=C4C[C@@H](OC(=O)CCC(=O)[O-])CC[C@]4(C)[C@H]3CC[C@]12C.[Na+].[Na+] [7β-hydroxycholesteryl-bishemisuccinate-disodium],behaviour in aqueous solution over time,[1],starts to decompose and to flocculate
same,stability in aqueous solution,[1],instable
same,water solubility,[1],water soluble
same,induction of apoptosis,[2],induction of apoptosis
